Laboratory results as given in patent publication US5112872A, “Antispasmodic agent” (Taiko Pharmaceutical Co., Ltd., priority 1989, dated 1992).
Like-named read-outs stand apart in the source and are kept apart here.

What was measured:
in vivo = settings: rat, po
strips of the ileum = assay: 100% inhibition of peristaltic motility of ileum strips, Pharmacological Test 1(b); parameters: species or system guinea pig (female Hartley); settings: for IC100: Cavia porcellus, read-out: IC100 (dose causing 100% inhibition of the motility of the strip)
Protocol: (b) Experiments on the inhibition of peristaltic motility of intestinal strips were carried out in the same manner as Experiment (a) except that guaiacol, creosol, cresol, phenol and xylenol, all of which are components of creosote, were respectively used in lieu of creosote.

Row | Molecule | LD50 (in vivo) [mg/kg] | antispasmodic activity (inhibition of intestinal motility), in words (strips of the ileum) | IC100 (strips of the ileum) [µg/mL] | IC100 (strips of the ileum; strips of the ileum) [µg/mL] | IC100 (dose causing 100% inhibition of the motility of the strip) (strips of the ileum; strips of the ileum) [g/mL]
1 | Cc1ccc(O)cc1 [p-Cresol] | 1800 |  |  |  | 
2 | Oc1ccccc1 [Phenol, phenol] | 530 | antispasmodic activity comparable to that of creosote | 100 |  | 
3 | COc1cc(C)ccc1O [Creosol, creosol] |  | antispasmodic activity comparable to that of creosote |  | 100 | 
4 | Cc1ccccc1O [o-Cresol] | 1350 |  |  |  | 
5 | cresol |  | antispasmodic activity comparable to that of creosote |  |  | 0.0001
6 | xylenol |  | antispasmodic activity comparable to that of creosote |  |  | 0.0001
7 | COc1ccccc1O [Guaiacol, guaiacol] | 725 | antispasmodic activity comparable to that of creosote |  | 100 | 
8 | Cc1cccc(O)c1 [m-Cresol] | 2020 |  |  |  | 
